Test results published in patent publication US10111890B2, “9-aminomethyl minocycline compounds and uses thereof” (Paratek Pharmaceuticals, Inc., priority 2016, dated 2018).
Several values for one entry are separate records, joined by “and”; a condition that tells them apart may be missing. Identical values can stand only once.

Tests used:
[1] = system: ABSSSI known or suspected to be due to Gram-positive pathogens; assay: Phase 3 oral omadacycline vs oral linezolid in ABSSSI: Investigator's Assessment of Clinical Response at PTE; type: in vivo, human; conditions: for Overall Clinical Success at PTE, %: micro-mITT, % of N1; for Difference (95% CI) in Overall Clinical Success rate at PTE: omadacycline minus linezolid
[2] = system: ABSSSI known or suspected to be due to Gram-positive pathogens; assay: Phase 3 oral omadacycline vs oral linezolid in ABSSSI: Early Clinical Response 48-72 hours after first dose; type: in vivo, human; conditions: 48-72 hours after first dose; mITT population
[3] = Cellulitis/erysipelas, actual type, mITT
[4] = Cellulitis/erysipelas, as randomized, mITT
[5] = Major Abscess, actual type, mITT
[6] = Major Abscess, as randomized, mITT
[7] = Wound Infection, actual type, mITT
[8] = Wound Infection, as randomized, mITT

CN(C)c1cc(CNCC(C)(C)C)c(O)c2c1C[C@H]1C[C@H]3[C@H](N(C)C)C(O)=C(C(N)=O)C(=O)[C@@]3(O)C(O)=C1C2=O [Omadacycline, 9-[(2,2-dimethyl-propylamino)-methyl]-minocycline]
Difference in Overall Clinical Success rate at PTE, omadacycline minus linezolid ([1]; CE-PTE): 2.3%
Overall clinical response at PTE: Clinical Success ([1]; Cellulitis/erysipelas, actual type of infection, investigator assessment, mITT): 76 (88.4) n (%)
Overall clinical response at PTE: Clinical Failure [1, 3]: 2 (2.3) n (%)
Overall clinical response at PTE: Clinical Failure or Indeterminate [1, 3]: 10 (11.6) n (%)
Overall clinical response at PTE: Indeterminate [1, 3]: 8 (9.3) n (%)
Overall clinical response at PTE: Clinical Failure [1, 4]: 2 (2.4) n (%)
Overall clinical response at PTE: Clinical Failure or Indeterminate [1, 4]: 10 (12.2) n (%)
Overall clinical response at PTE: Indeterminate [1, 4]: 8 (9.8) n (%)
Overall clinical response at PTE: Clinical Success ([1]; Cellulitis/erysipelas, type of infection as randomized, investigator assessment, mITT): 72 (87.8) n (%)
Overall clinical response at PTE: Clinical Success ([1]; Major Abscess, actual type of infection, investigator assessment, mITT): 54 (84.4) n (%)
Overall clinical response at PTE: Clinical Failure [1, 5]: 2 (3.1) n (%)
Overall clinical response at PTE: Clinical Failure or Indeterminate [1, 5]: 10 (15.6) n (%)
Overall clinical response at PTE: Indeterminate [1, 5]: 8 (12.5) n (%)
Overall clinical response at PTE: Clinical Failure [1, 6]: 2 (3.1) n (%)
Overall clinical response at PTE: Clinical Failure or Indeterminate [1, 6]: 10 (15.6) n (%)
Overall clinical response at PTE: Indeterminate [1, 6]: 8 (12.5) n (%)
Overall clinical response at PTE: Clinical Success ([1]; Major Abscess, type of infection as randomized, investigator assessment, mITT): 54 (84.4) n (%)
Overall clinical response at PTE: Clinical Success ([1]; Wound Infection, actual type of infection, investigator assessment, mITT): 173 (82.4) n (%)
Overall clinical response at PTE: Clinical Failure [1, 7]: 8 (3.8) n (%)
Overall clinical response at PTE: Clinical Failure or Indeterminate [1, 7]: 37 (17.6) n (%)
Overall clinical response at PTE: Indeterminate [1, 7]: 29 (13.8) n (%)
Overall clinical response at PTE: Clinical Failure [1, 8]: 8 (3.7) n (%)
Overall clinical response at PTE: Clinical Failure or Indeterminate [1, 8]: 37 (17.3) n (%)
Overall clinical response at PTE: Indeterminate [1, 8]: 29 (13.6) n (%)
Overall clinical response at PTE: Clinical Success ([1]; Wound Infection, type of infection as randomized, investigator assessment, mITT): 177 (82.7) n (%)
Overall Clinical Success at PTE, % ([1]; baseline pathogen Clostridium perfringens, investigator assessment): (80.0) %
Overall Clinical Success at PTE, % ([1]; baseline pathogen Enterobacter cloacae, investigator assessment): (80.0) %
Overall Clinical Success at PTE, % ([1]; baseline pathogen Enterococcus faecalis VSE, investigator assessment): (100.0) %
Overall Clinical Success at PTE, % ([1]; baseline pathogen Enterococcus faecalis, investigator assessment): (100.0) %
Overall Clinical Success at PTE, % ([1]; baseline pathogen Enterococcus faecium VSE, investigator assessment): (100.0) %
Overall Clinical Success at PTE, % ([1]; baseline pathogen Enterococcus faecium, investigator assessment): (100.0) %
Overall Clinical Success at PTE, % ([1]; baseline pathogen Escherichia coli, investigator assessment): (100.0) %
Overall Clinical Success at PTE, % ([1]; baseline pathogen Finegoldia magna, investigator assessment): (100.0) %
Overall Clinical Success at PTE, % ([1]; baseline pathogen Klebsiella pneumoniae, investigator assessment): (80.0) %
Overall Clinical Success at PTE, % ([1]; baseline pathogen MRSA, investigator assessment): (85.6) %
Overall Clinical Success at PTE, % ([1]; baseline pathogen MSSA, investigator assessment): (80.8) %
Overall Clinical Success at PTE, % ([1]; baseline pathogen Prevotella denticola, investigator assessment): (60.0) %
Overall Clinical Success at PTE, % ([1]; baseline pathogen Prevotella melaninogenica, investigator assessment): (100.0) %
Overall Clinical Success at PTE, % ([1]; baseline pathogen Staphylococcus aureus, investigator assessment): (82.7) %
Overall Clinical Success at PTE, % ([1]; baseline pathogen Staphylococcus lugdunensis, investigator assessment): (80.0) %
Overall Clinical Success at PTE, % ([1]; baseline pathogen Streptococcus agalactiae, investigator assessment): (50.0) %
Overall Clinical Success at PTE, % ([1]; baseline pathogen Streptococcus anginosus group, investigator assessment): (86.0) %
Overall Clinical Success at PTE, % ([1]; baseline pathogen Streptococcus anginosus, investigator assessment): (88.9) %
Overall Clinical Success at PTE, % ([1]; baseline pathogen Streptococcus constellatus, investigator assessment): (88.9) %
Overall Clinical Success at PTE, % ([1]; baseline pathogen Streptococcus intermedius, investigator assessment): (78.3) %
Overall Clinical Success at PTE, % ([1]; baseline pathogen Streptococcus mitis, investigator assessment): (100.0) %
Overall Clinical Success at PTE, % ([1]; baseline pathogen Streptococcus pyogenes, investigator assessment): (69.0) %
Overall Clinical Success at PTE, % ([1]; baseline pathogen Streptococcus viridans group, investigator assessment): (100.0) %
Overall clinical response at PTE: Clinical Failure ([1]; investigator assessment, CE-PTE): 6 (2.1) n (%)
Overall clinical response at PTE: Clinical Success ([1]; investigator assessment, CE-PTE (N = 284 / N = 292)): 278 (97.9) n (%)
Overall clinical response at PTE: Clinical Failure ([1]; investigator assessment, mITT): 12 (3.3) n (%)
Overall clinical response at PTE: Clinical Failure or Indeterminate ([1]; investigator assessment, mITT): 57 (15.8) n (%)
Overall clinical response at PTE: Indeterminate ([1]; investigator assessment, mITT): 45 (12.5) n (%)
Overall clinical response at PTE: Clinical Success ([1]; investigator assessment, mITT (N = 360 per arm)): 303 (84.2) n (%)
Difference in Overall Clinical Success rate at PTE, omadacycline minus linezolid ([1]; mITT): 3.3%
Difference (95% CI) in Overall Clinical Success rate at PTE [1, 3]: −4.5 (−14.0, 4.7)
Difference (95% CI) in Overall Clinical Success rate at PTE [1, 4]: −5.1 (−14.9, 4.3)
Difference (95% CI) in Overall Clinical Success rate at PTE [1, 5]: 5.3 (−8.4, 19.2)
Difference (95% CI) in Overall Clinical Success rate at PTE [1, 6]: 5.3 (−8.4, 19.2)
Difference (95% CI) in Overall Clinical Success rate at PTE [1, 7]: 5.7 (−2.0, 13.4)
Difference (95% CI) in Overall Clinical Success rate at PTE [1, 8]: 6.1 (−1.6, 13.7)
Difference (95% CI) in Early Clinical Success rate, omadacycline minus linezolid [2]: 5.0% and 5.0 (−0.2, 10.3) %
